# In US12371424B2, “Processes for the preparation of furazanobenzimidazoles and crystalline forms thereof” (Glioblastoma Foundation, Inc., priority 2017, dated 2025):
# Key:
# [1] = Dynamic vapor sorption (DVS) moisture sorption isotherm; type: physicochemical; details: for water absorption up to 85% RH / water absorption up to 95% RH: DVS, ca. 25° C.
# Experimental: Differences in hygroscopicity of the various forms of a solid material provided a measure of their relative stability at increasing relative humidity. Moisture sorption isotherms were obtained using a DVS-1 system from Surface Measurement Systems (London, UK). The relative humidity was varied during sorption-desorption (see specific experiment) at a constant temperature of ca. 25° C. At the end of the DVS experiment the sample was measured by XRPD.
# The dynamic vapor sorption (DVS) analysis for the crystalline Form E of the dichloride salt of the compound of formula I is depicted in FIG. 11.
# See Example 5f for experimental details. The DVS analysis for the crystalline System A+M of the dichloride salt of the compound of formula I is depicted in FIG. 35.
# [2] = Polymorphic stability (XRPD, climate chamber storage)
# Experimental: XRPD patterns were obtained using a high-throughput XRPD set-up. The plates were mounted on a Bruker GADDS diffractometer equipped with a Hi-Star area detector. The XRPD platform was calibrated using Silver Behenate for the long d-spacings and Corundum for the short d-spacings. Data collection was carried out at room temperature using monochromatic CuKo radiation in the 20 region between 1.5° and 41.5°, which is the most distinctive part of the XRPD pattern. The diffraction pattern of each well was collected in two 20 ranges (1.5° 20≤21.5° for the first frame, and 19.5°% 20≤41.5° for the second) with an exposure time of 90 s for each frame. No background subtraction or curve smoothing was applied to the XRPD patterns. The carrier material used during XRPD analysis was transparent to X-rays and contributed only slightly to the background.
# For variable humidity (VH) and variable temperature (VT) experiments a ANSYCO HT chamber was used, installed within a D8 Advance system diffractometer (Bruker) designed with Bragg-Brentano geometry and equipped with LynxEye solid state detector. The radiation used for collecting the data was CuKαl (2=1.54056 Å) monochromatized by germanium crystal. The material was placed on a fixed sample holder that was mounted inside the chamber.
# VH-XRPD: The humidity was applied locally and varied from 10 to 70% (dew point). […]
# [3] = Thermodynamic pH-dependent solubility; details: room temperature, 24 h
# Experimental: The thermodynamic pH-dependent solubility was performed in unbuffered water as well as using standard Merck Titriplex® buffers (Merck Titrisol® buffer pH 3 with citrate and HCl; Merck Titrisol® buffer pH 4 with citrate and HCl; Merck Titrisol® buffer pH 5 with citrate and NaOH; Merck Titrisol® buffer pH 6 with citrate and NaOH; Merck Titrisol® buffer pH 7 with phosphate; for buffering at pH 4.5 a 50/50 mixture of buffers for pH 4 and 5 was used; for buffering at pH 5.5 a 50/50 mixture of buffers for pH 5 and 6 was used).
# For each experiment, an 8 mL screw cap vial was prepared with the polymorphic material, the buffer solvent according to the target pH and a magnetic stirring bar. Each pH data point was determined in triplicate with a target pH of 3, 4, 4.5, 5, 5.5 and 7. The pH was measured (Fisherbrand pH meter Hydrus 400, a three point calibration was performed prior to measurement) and adjusted with 1M NaOH solution. […] After 24 h the pH was monitored and the slurries were centrifuged for 10 min at 3000 rpm to separate the solids and liquids and filtered (0.45 micron disk filter). […] Concentrations of the compound of formula I were determined by High Performance Liquid Chromatography with Diode Array Detection analysis (HPLC-DAD). […]
# HPLC testing was performed on Agilent 1100 with DAD detector at 280 nm wavelength. A LOQ of 11 μg/mL was determined, linearity is given up to ca. 0.7 mg/mL. […]
"hysteresis in DVS ([1]; isothermic (24.9° C.) DVS, 0→95→0% RH)","maximum mass change ([1]; isothermic (24.9° C.) DVS, 0→95→0% RH in steps of 10% RH, at 95% RH) [%]",polymorphic form after 2 days at 40° C./75% RH ([2]; wet solid treated 2 days at 40° C./75% RH),water absorption up to 85% RH [1],water absorption up to 95% RH [1],polymorphic stability (in words) ([2]; listed as System A+X),solubility (in words) [3],SMILES
No hysteresis was observed,34,,,,,,N#CCCNc1nonc1-c1nc2ccccc2n1CC(=O)c1ccc(NC(=O)[C@@H](N)CCCCN)cc1 [Mixture A1+M4]
,,Form E,1%,ca. 4%,,,N#CCCNc1nonc1-c1nc2ccccc2n1CC(=O)c1ccc(NC(=O)[C@@H](N)CCCCN)cc1 [Form E]
,,,ca. 22%,< 34%,polymorphically stable,good solubility,N#CCCNc1nonc1-c1nc2ccccc2n1CC(=O)c1ccc(NC(=O)[C@@H](N)CCCCN)cc1 [System A+M]
